Results published in patent US20180203025A1, “HDL THERAPY MARKERS” (Cerenis Therapeutics Holding SA, priority 2014, published 2018).

Experiments:
[1] = system: SREBP-1 mRNA in mouse macrophages (J774); assay: SREBP-1 gene expression (real-time PCR) in J774 macrophages; format: cell-based; settings: 6 hours
Procedure: The mRNA regulation of those genes expressing ABCA1, ABCG1 and SR-BI is linked to nuclear proteins as LXR, SREBP1 and SREBP2. […] Gene expression was assayed using the protocols described in Sections 8.3.2 (RNA extraction); 8.3.4 (reverse transcription), and 8.3.5 (qPCR). SREBP-1, SREBP-2 and LXR gene expression levels were determined with Taqman probe (Mm01138344.m1, Mm01306292.m1, Mm00443451.m1 respectively) according to the manufacturer's protocol. The reference gene used is HPRT1 (Taqman probe: Mm00446968.m1).
(§1) J774 were seeded on 6 well plates (300,000 cells/well) and loaded with oxidized-LDL. […] Gene expression was assayed using the protocols described in Sections 8.3.2 (RNA extraction); 8.3.4 (reverse transcription), and 8.3.5 (qPCR). SR-BI gene (Taqman probe Mm00450234.m1), ABCG1 (Taqman probe Mm00437390.m1), SREBP1 (Taqman probe Mm01138344.m1) and ABCA1 (Taqman probe Mm00442646.m1) expression were determined according to the manufacturer's protocol. The reference gene used is HPRT1 (Taqman probe: Mm00446968.m1).
This study used β-cyclodextrin to examine the effect of β-cyclodextrin on LXR, SREBP1 and SREBP2 mRNA expression in J774 macrophages. J774 were seeded on 6 well plates (300,000 cells/well). β-cyclodextrin (0.03, 0.1, 0.3, 1, 3, 10 and 30 mM) was added for 6 hours on the macrophages and the RNA were extracted with the RiboPure™ kit according to the manufacturer's protocol. Gene expression was assayed using the protocols described in Sections 8.3.2 (RNA extraction); 8.3.4 (reverse transcription), and 8.3.5 (qPCR). SREBP-1, SREBP-2 and LXR gene expression were determined with Taqman probe (Mm01138344.m1, Mm01306292.m1, Mm00443451.m1 respectively) according to the manufacturer's protocol. The reference gene used is HPRT1 (Taqman probe: Mm00446968.m1).

[2] = system: ABCG1 mRNA in mouse macrophages (J774); assay: ABCG1 gene expression (real-time PCR) in J774 macrophages; format: cell-based
Procedure: J774 were seeded on 6 well plates (300,000 cells/well) and loaded with oxidized-LDL without the use of ^3H-cholesterol. […] Gene expression was assayed using the protocols described in Sections 8.3.2 (RNA extraction); 8.3.4 (reverse transcription), and 8.3.5 (qPCR). ABCG1 gene expression was determined with Taqman probe Mm00437390.m1 according to the manufacturer's protocol. The reference gene used is HPRT1 (Taqman probe: Mm00446968.m1).
as §1
(§2) J774 were seeded on 6 well plates (300,000 cells/well) and loaded with oxidized-LDL. […] Gene expression was assayed using the protocols described in Sections 8.3.2 (RNA extraction); 8.3.4 (reverse transcription), and 8.3.5 (qPCR). ABCG1 (Taqman probe Mm00437390.m1) and ABCA1 (Taqman probe Mm00442646.m1) expression were determined according to the manufacturer's protocol. The reference gene used is HPRT1 (Taqman probe: Mm00446968.m1).
as §2
J774 were seeded on 6 well plates (600,000 cells/well) in DMEM 10% FCS. […] Medium was removed and the macrophages were washed with DMEM. […] Gene expression was assayed using the protocols described in Sections 8.3.2 (RNA extraction); 8.3.4 (reverse transcription), and 8.3.5 (qPCR). ABCG1 (Taqman probe Mm00437390.m1), ABCA1 (Taqman probe Mm00442646.m1) and SR-BI (Taqman probe Mm00450234.m1) expression were determined according to the manufacturer's protocol. The reference gene used is HPRT1 (Taqman probe: Mm00446968.m1).
J774 were seeded on 6 well plates (300,000 cells/well) in DMEM 2.5% FCS. […] The next day, medium was replaced by fresh DMEM supplemented with or without ApoA-I (25 or 250 μg/mL) to initiate ApoA-I cholesterol efflux for 2 hours. The experiment was stopped at different time points: 1) J774 stopped before addition of ApoA-I, 2) J774+DMEM (passive efflux for 2 hours), 3) J774+ApoA-I (25 μg/mL) for 2 hours and 4) J774+ApoA-I (250 μg/mL) for 2 hours. The RNA was extracted with the RiboPure™ kit according to the manufacturer's protocol. Gene expression was assayed using the protocols described in Sections 8.3.2 (RNA extraction); 8.3.4 (reverse transcription), and 8.3.5 (qPCR). ABCA1 (Taqman probe Mm00442646.m1), ABCG1 (Taqman probe Mm00437390.m1), and SR-BI (Taqman probe Mm00450234.m1) expression were determined according to the manufacturer's protocol. The reference gene used is HPRT1 (Taqman probe: Mm00446968.m1).
This study examined the effect of HDL2 on ABCA1, ABCG1 and SR-BI mRNA levels in mouse macrophages. […] J774 were seeded on 6 well plates (300,000 cells/well) and loaded with oxidized-LDL. HDL2 (from 2.5 to 1000 μg/mL) were added for 6 hours on the macrophages and the RNA were extracted with the RiboPure™ kit according to the manufacturer's protocol. Gene expression was assayed using the protocols described in Sections 8.3.2 (RNA extraction); 8.3.4 (reverse transcription), and 8.3.5 (qPCR). ABCA1 (Taqman probe Mm00442646.m1), ABCG1 (Taqman probe Mm00437390.m1) and SR-BI (Taqman probe Mm00450234.m1) gene expression were determined according to the manufacturer protocols.

CER-001: engineered recombinant human apolipoprotein A-I HDL with sphingomyelin and DPPG; protein-to-phospholipid ratio 1:2.7, 97% Sph and 3% DPPG
SREBP-1 gene expression ([1]; Study D, 25, 250 and 1000 μg/mL): affected SREBP-1 mRNA levels
concentration above which SREBP1 decrease and plateau observed ([1]; Study E): above 2.5 μg/mL
ABCG1 mRNA expression ([2]; Study B, oxidized-LDL loaded, 25, 250 and 1000 μg/mL, 6 hours): decreased the ABCG1 mRNA at all the doses
ABCG1 mRNA level ([2]; Study G, 250 μg/mL, 6 hours, without cAMP): decreased
ABCG1 mRNA level (RQ) ([2]; Study G, overnight cAMP 300 μM, then 250 μg/mL 6 hours): 1
dose of maximum decrease of ABCG1 mRNA level ([2]; Study I, 6 hours): around 15 μg/mL
doses at which decrease of ABCG1 mRNA level was observed ([2]; Study I, 6 hours, presence or absence of cAMP): 4 to 6 µg/mL
ABCG1 mRNA level ([2]; Study J, 24 hours treatment, 250 μg/mL): decrease
time for ABCG1 mRNA level to return to baseline after removal ([2]; Study J, after 24 hours at 250 μg/mL): 8 h

OC[C@H]1O[C@@H]2O[C@H]3[C@H](O)[C@@H](O)[C@@H](O[C@H]4[C@H](O)[C@@H](O)[C@@H](O[C@H]5[C@H](O)[C@@H](O)[C@@H](O[C@H]6[C@H](O)[C@@H](O)[C@@H](O[C@H]7[C@H](O)[C@@H](O)[C@@H](O[C@H]8[C@H](O)[C@@H](O)[C@@H](O[C@H]1[C@H](O)[C@H]2O)O[C@@H]8CO)O[C@@H]7CO)O[C@@H]6CO)O[C@@H]5CO)O[C@@H]4CO)O[C@@H]3CO [β-cyclodextrin, reference compound]
SREBP-1 mRNA ([1]; Study P, 0.03 to 30 mM): dose-dependent decrease
ABCG1 mRNA level ([2]; Study O, 0.03 to 30 mM, 6 hours): dose-dependent decrease
